Our source for the IC50 values is patent US20260265244A1, “HETEROCYCLIC COMPOUNDS AS STING ANTAGONISTS” (Boehringer Ingelheim International GmbH, priority 2022, published 2026).

The target of one test is T1, human STING WT (R232) (Homo sapiens, UniProt Q86WV6, H232R).
T1 construct: purchased Cisbio 64BDSTGPEG
Put plainly: Human STING HTRF binding assay (competitive, Cisbio 64BDSTGPEG). Here is the method:
Binders to human STING WT (R232) were identified using a competitive HTRF assay format (Cisbio 64BDSTGPEG), which uses d2-labeled STING ligand, a 6His (SEQ ID NO: 2) tagged human STING protein, and an anti 6His (SEQ ID NO: 2) Cryptate-labeled antibody. Compounds compete with the STING ligand-d2 and thereby prevents FRET from occurring, which can be measured by an EnVision™ reader (PerkinElmer).
Assay method: Compounds were delivered as 10 mM DMSO solution, serially diluted by an Agilent Bravo Workstation and transferred to the 384 well assay plate (Perkin Elmer #6005359) using a Cybiwell dispenser. Typically, 8 concentrations were used with the highest concentration at 10 μM or 1 μM in the final assay volume followed by ~1:5 dilution steps. DMSO concentration was set to 1% in the final assay volume. The 384 well assay plate contained 20 test compounds and DMSO in column 23 and 24. A cGAMP standard dilution row was prepared according to the manufacturer and transferred to each assay plate. After transfer of compound solution or dilution buffer for negative (high) and positive (low) controls, 5 μl of the human STING protein (cyclic binding domain (residues 138-379) of the WT R232 human version, fused to a 6 His tag (SEQ ID NO: 2) at the Nter part; 1:50 dilution in detection buffer) were dispensed to all wells except of the positive control, which received detection buffer only. Plates were the centrifuged for 20 sec at 1000 rpm. After that, 10 μl of Anti-6His-Cryptate antibody/Sting ligand-d2 mix was added to all wells using a Multidrop combi dispenser, followed by another sec/1000 rpm centrifugation step. After an incubation of the plates for 180 min at room temperature, […] at […] (HTRF ratio) was measured using an Envison Reader (PerkinElmer).
Data evaluation and calculation: For data evaluation and calculation, HTRF ratios were calibrated using the cGAMP standard curve. After that, the measurement of the low control was set as 0% control and the measurement of the high control was set as 100% control. The IC50 values were calculated using the standard 4 parameter logistic regression formula. Calculation: [y=(a−d)/(1+(x/c)^b)+d], a=low value, d=high value; x=conc M; c=IC50 M; b=slope;
(TR-FRET usually uses a lanthanide donor and a delayed reading to cut background.)

Test [1] deals with STING inhibition in human whole blood (IFNα2α production). Nature of the test: Human whole blood assay (HWBA): cGAMP-stimulated IFNα2α production. Type of test: cell-based. As to conditions: Homo sapiens. On the procedure: For the detection of STING inhibition in physiological environment human whole blood was stimulated by the cyclic dinucleotide cGAMP. Pathway activity was monitored by measuring the IFNα2α production.
Assay method: Compounds were delivered as 10 mM DMSO solution and serial diluted and transferred to the 96-well Cell culture Plate (Corning #3595), prefilled with 20 μl OptiMEM (Gibco #11058-021) in each well, using an Echo acoustic dispenser. Typically, 8 concentrations were used with the highest concentration at 10 μM in the final assay volume followed by ~1:5 dilution steps. DMSO concentration was set to 0.1% in the final assay volume. The 96 well assay plate contained 9 test compounds, a reference compound and DMSO in control wells.
Collection of human whole blood from 3 or more healthy donors (male or female, no medication for 7 days, exception contraceptive and thyroxine) as Na-citrate blood (e.g. 3.8% in Monovettes from Sarstedt) is conducted in parallel. Whole blood was kept at room temperature for a maximum of 3 hours after collection until use in the assay.
160 μl of the whole blood samples were transferred to each well of the 96-well assay plates filled with compound/OptiMEM. All assay plates are prepared as duplicates with blood from different donors. Blood plates were kept at room temperature for 60 minutes and continuous shaking with 450 rpm, covered with the lid, but not sealed.
A 10× cGAMP assay solution was diluted from a 2 mM stock solution in 1×HBSS immediately before use at room temperature. 20 μl of the 10× cGAMP/HBSS were added to all compound and all high control wells, whereas HBSS only was added to all low control wells.
After covering assay plates with aera seals and the lid, blood plates were kept at room temperature for 30 minutes and continuous shaking with 450 rpm, followed by an overnight incubation of 22 h at 37° C. in the incubator, without shaking.
For the detection of IFNα-2α in human plasma, the biotinylated capture antibody (Antibody set IFNA2, Meso Scale Diagnostics #B21VH-3, including coating and capture antibody) was diluted 1:17.5 in Diluent 100 (Meso Scale Diagnostics #R50AA-4, according to the manufacturer. U-Plex MSD GOLD 96-well Small Spot Streptavidin SECTOR Plates (Meso Scale Diagnostics #L45SA-5) were coated with 25 μl diluted capture antibody. Coated plates were incubated for 60 min at room temperature under continuous shaking at 700 rpm. MSD IFNα-2α plates were washed three times with 150 μl wash buffer (1×HBSS, 0.05% Tween).
After blocking the plates with 100 μl block solution/well (1×HBSS with 0.2% Tween, 2% BSA) for 60 min at room temperature and continuous shaking at 700 rpm, plates were emptied as dry as possible by dumping just before continuing with the human plasma. Whole Blood assay plates were centrifuged at 1600 rpm for 10 minutes. 25 μl of supernatant was transferred with a pipetting robotics from each whole blood plate to the corresponding IFNα-2α plate. Plates were sealed with microplate seals and kept at room temperature again under continuous shaking at 700 rpm for two hours. Next MSD IFNα-2α plates were washed three times with 150 μl wash buffer (1×HBSS, 0.05% Tween), before adding 25 μl MSD SULFO-TAG IFNα-2α Antibody solution (1:100 diluted in Diluent 3 (Meso Scale Diagnostics #R50AP-2) to each well of the plates. Afterwards plates were sealed with microplate seals and kept at room temperature again under continuous shaking at 700 rpm for two hours. Finally MSD IFNα-2α plates were washed three times with 150 μl wash buffer (1×HBSS, 0.05% Tween). 150 μl 2×Read buffer was added to each well and plates were immediately measured with the MSD Sector S600 Reader using the vendor barcode.
Data evaluation and calculation: For data evaluation and calculation, % control calculation of each well was based on the mean of high (cGAMP stimulated control) and mean of low (unstimulated control) controls by using the following formula: […]

T1 sequence (Q86WV6 138-379 H232R): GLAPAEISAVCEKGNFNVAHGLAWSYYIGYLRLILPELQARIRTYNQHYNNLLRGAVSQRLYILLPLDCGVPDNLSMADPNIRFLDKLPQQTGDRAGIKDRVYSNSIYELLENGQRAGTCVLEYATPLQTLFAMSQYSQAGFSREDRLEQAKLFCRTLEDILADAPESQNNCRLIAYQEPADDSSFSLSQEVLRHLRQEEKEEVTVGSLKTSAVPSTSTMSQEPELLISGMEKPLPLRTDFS

In the case of `Cc1c(C(C)C)c(-c2cccc3nn(C[C@H](O)c4ccccc4)cc23)nn1-c1cc2cn(C)nc2nc1CO` [Example 106, (1R)-2-(4-{1-[6-(hydroxymethyl)-2-methyl-2H-pyrazolo[3,4-b]pyridin-5-yl]-5-methyl-4-(propan-2-yl)-1H-pyrazol-3-yl}-2H-indazol-2-yl)-1-phenylethan-1-ol], the results for the IC50 (at human STING WT (R232); in test [1]) were 3.2 nM and 28 nM, respectively.
With `Cc1c(C(C)C)c(-c2cccc3nn(C[C@H](O)c4ccccc4)cc23)nn1-c1cc2cn(C)nc2nc1CC1CC1` [Example 54, (1R)-2-(4-{1-[6-(cyclopropylmethyl)-2-methyl-2H-pyrazolo[3,4-b]pyridin-5-yl]-5-methyl-4-(propan-2-yl)-1H-pyrazol-3-yl}-2H-indazol-2-yl)-1-phenylethan-1-ol], the IC50 on human STING WT (R232) was found to be 86.9 nM; in test [1], 200 nM.
On to `CC(C)c1nc2nn(C)cc2cc1-c1nc(-c2cccc3nn(C[C@H](O)c4ccccc4)cc23)c(C2CC2)n1C` [Example 97, (1R)-2-(4-{5-Cyclopropyl-1-methyl-2-[2-methyl-6-(propan-2-yl)-2H-pyrazolo[3,4-b]pyridin-5-yl]-1H-imidazol-4-yl}-2H-indazol-2-yl)-1-phenylethan-1-ol], for which the IC50 on human STING WT (R232) was 3.4 nM; in test [1], 52 nM.
Turning to `Cc1c(C(C)C)c(-c2cccc3nn(C[C@H](O)c4ccccc4)cc23)nn1-c1cc2cn(C)nc2nc1C(C)(C)C` [Example 113, (1R)-2-[4-(1-{6-tert-butyl-2-methyl-2H-pyrazolo[3,4-b]pyridin-5-yl}-5-methyl-4-(propan-2-yl)-1 H-pyrazol-3-yl)-2H-indazol-2-yl]-1-phenylethan-1-ol], the IC50 stood at 62.8 nM at human STING WT (R232) and 1200 nM in test [1].
In the case of `Cn1cc2cc(-c3nc(-c4cccc5nn(C[C@H](O)c6ccccc6)cc45)c(C4CC4)n3C)c(OC(F)F)cc2n1` [Example 34, (1R)-2-(4-{5-cyclopropyl-2-[6-(difluoromethoxy)-2-methyl-2H-indazol-5-yl]-1-methyl-1H-imidazol-4-yl}-2H-indazol-2-yl)-1-phenylethan-1-ol], the figures for the IC50 (on human STING WT (R232); in test [1]) were 7.1 nM and 120 nM, respectively.
The like results for `Cc1c(C(C)C)c(-c2cccc3nn(C[C@H](O)c4ccccc4)cc23)nn1-c1cc2cn(C)nc2nc1CN(C)C` [Example 112] were, in that order, 31.7 nM and 170 nM.
The corresponding values for `Cc1nc2nn(CC(F)F)cc2cc1-n1nc(-c2cccc3nn(C[C@H](O)c4ccccc4)cc23)c(C(C)C)c1C` [Example 103, (1R)-2-(4-{1-[2-(2,2-difluoroethyl)-6-methyl-2H-pyrazolo[3,4-b]pyridin-5-yl]-5-methyl-4-(propan-2-yl)-1H-pyrazol-3-yl}-2H-indazol-2-yl)-1-phenylethan-1-ol] are 9.3 nM and 44 nM.
`Cc1nc2nn(C)cc2cc1-n1nc(-c2cccc3nn(C[C@H](O)c4ccccc4)cc23)c(C(C)C)c1C` [Example 102, (1R)-2-[4-(1-{2,6-Dimethyl-2H-pyrazolo[3,4-b]pyridin-5-yl}-5-methyl-4-(propan-2-yl)-1H-pyrazol-3-yl)-2H-indazol-2-yl]-1-phenylethan-1-ol]: the values for the IC50 (at human STING WT (R232); in test [1]) were 3.6 nM and 40 nM, respectively.
Regarding `Cn1c(-c2cc3cn(CCC#N)nc3nc2C2CC2)nc(-c2cccc3nn(C[C@H](O)c4ccccc4)cc23)c1C1CC1` [Example 104, 3-[6-cyclopropyl-5-(5-cyclopropyl-4-{2-[(2R)-2-hydroxy-2-phenylethyl]-2H-indazol-4-yl}-1-methyl-1H-imidazol-2-yl)-2H-pyrazolo[3,4-b]pyridin-2-yl]propanenitrile], the IC50 was 2 nM at human STING WT (R232) and 49 nM in test [1].
On to `Cc1nc2nn(C3CCOC3)cc2cc1-n1nc(-c2cccc3nn(C[C@H](O)c4ccccc4)cc23)c(C(C)C)c1C` (stereo partly drawn) [Example 14, (1R)-2-(4-{5-methyl-1-[6-methyl-2-(oxolan-3-yl)-2H-pyrazolo[3,4-b]pyridin-5-yl]-4-(propan-2-yl)-1H-pyrazol-3-yl}-2H-indazol-2-yl)-1-phenylethan-1-ol], for which the IC50 at human STING WT (R232) was determined as 9.1 nM; in test [1], 76 nM.

The term IC50 denotes the point on the concentration scale where inhibition reaches its midpoint.
